The subject of one experiment is A673 cells. The experiment can be described thus: Cytotoxicity in A673 cells (Cell Titer Glo viability). The following applies: for Ratio of Biochemical Potency:Cellular Potency: CDK12 IC50 / A673 IC50; for IC50: Homo sapiens. Format: cell-based. The method, then:
Cells were plated in 96-well plates at a density of […] viable cells per well in 200 μL fully supplemented growth medium (DMEM+10% heat inactivated foetal bovine serum) and incubated for 24 hours in standard tissue culture conditions. Compounds, including MLN4924, were solubilised in DMSO and then diluted in fully supplemented growth medium at 2× their final assay concentration such that the final DMSO concentration was 0.1%. Growth medium in the assay plates was replaced with 50 μL of growth medium containing 2×MLN4924 (final assay concentration: 30 nM, where tested) or vehicle only and 50 μL of growth medium containing a 2× compound concentration series or vehicle only such that each compound was at 1× final assay concentration in 100 μL.
Cells were then incubated for 72 hours in standard tissue culture conditions before viability was assessed using 50 μL Cell Titer Glo reagent (Promega) per well and luminescence measured on an EnVision plate reader. Data were normalised to vehicle control (100%) and cells treated with 0.1% Triton x-100 for 1 hour before viability measurement (0%; full cell kill). […] Viability curves generated in the presence of MLN4924 were normalised and fixed to controls treated with MLN4924.
A general note: ATP-based viability assays read luminescence as a measure of living cells.

A further experiment deals with Human CDK12 wt/CycK (Homo sapiens (Human), UniProt Q9NYV4). Kind of experiment: Radiometric protein kinase assay (33PanQinase Activity Assay), CDK12. Format: biochemical. The following applies: for CDK7/CDK12: ratio of CDK7 IC50 to CDK12 IC50, greater than 1 indicates selectivity for CDK12. The protocol:
(§1) A radiometric protein kinase assay (^33PanQinase® Activity Assay) was used for measuring the kinase activity of the two protein kinases (CDK12/CDK7). All kinase assays were performed in 96-well FlashPlates™ from PerkinElmer (Boston, MA, USA) in a 50 μL reaction volume.
(§2) The reaction cocktail was pipetted in four steps in the following order: • 20 μL of assay buffer (standard buffer) • 5 μL of ATP solution (in H2O) • 5 μL of test compound (in 10% DMSO) • 10 μL of substrate/10 μL of enzyme solution (premixed)
(§3) The reaction mixture was incubated at 30° C. for 60 min and then stopped by the addition of 2% (v/v) H3PO4. Plates were aspirated and washed two times with 200 μL 0.9% (w/v) NaCl. Incorporation of ^33Pi was determined with a microplate scintillation count (Microbeta, Wallac).
The fitting method used was a least-squares fit.

In another experiment the target is Human CDK7/CycH/MAT1 (Homo sapiens (Human), UniProt P50613). The experiment can be described thus: Radiometric protein kinase assay (33PanQinase Activity Assay), CDK7. The format is biochemical. The following applies: ATP 3 μM. The method, then: Additionally for the CDK7 assay: • Human CDK7/CycH/MAT1 (ProQinase, 0366-0360-4—Lot 2). • RBER-CHKtide (ProQinase, 0581-0000-5—Lot 106).
as §1, §2
For the CDK7 assay, a reaction mixture (50 μL) containing the following components was prepared: • 70 mM HEPES-NaOH (pH 7.5); • sodium orthovanadate (3 μM); • PEG-20000 (50 μg/mL); • DTT (1.2 mM); • MgCl2 (3 mM); • MnCl2 (3 mM); • purified human CDK7/CycH/MAT1 (3.3 nM—Lot 02); • RBER-CHKtide substrate (40 μg/mL—Lot 106); • ATP (3 μM); • [γ-33P]-ATP (approx. 8×10^5 cpm per well); and • test compound at the appropriate concentration such that the final concentration of DMSO was […].
as §3
The residual activities for each concentration and the compound IC50 values were calculated using Quattro Workflow V3.1.1 (Quattro Research GmbH, Munich, Germany). The fitting model for the IC50 determinations was “Sigmoidal response (variable slope)” with parameters “top” fixed at 100% and “bottom” at 0%. The fitting method used was a least-squares fit.

Setting [1] is: A673, read-out: Cellular Potency IC50 (nM) (in A673 cells).
[2] abbreviates: A673 cells, 72 hours, read-out: A673 IC50.
[3] abbreviates: ATP 0.3 μM, read-out: CDK12 IC50.
Where [4] appears, read: read-out: CKD12 Biochemical Potency IC50.

Molecules are shown by their SMILES. Like-named read-outs stand apart in the source and are kept apart here.

Usually IC50 stands for the point on the concentration scale where inhibition reaches its midpoint.

Chain of Human CDK7/CycH/MAT1 (P50613 whole entry): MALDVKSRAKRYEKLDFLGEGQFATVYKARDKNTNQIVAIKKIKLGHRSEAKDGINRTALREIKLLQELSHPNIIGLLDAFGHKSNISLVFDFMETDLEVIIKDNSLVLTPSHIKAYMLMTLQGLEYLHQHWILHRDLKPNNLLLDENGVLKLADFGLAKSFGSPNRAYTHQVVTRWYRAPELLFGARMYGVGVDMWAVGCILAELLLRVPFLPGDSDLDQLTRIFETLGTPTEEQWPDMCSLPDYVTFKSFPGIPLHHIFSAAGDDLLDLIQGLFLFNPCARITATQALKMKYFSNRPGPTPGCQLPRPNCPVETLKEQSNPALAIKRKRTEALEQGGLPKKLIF
Chain of Human CDK7/CycH/MAT1 (P51946 whole entry partner): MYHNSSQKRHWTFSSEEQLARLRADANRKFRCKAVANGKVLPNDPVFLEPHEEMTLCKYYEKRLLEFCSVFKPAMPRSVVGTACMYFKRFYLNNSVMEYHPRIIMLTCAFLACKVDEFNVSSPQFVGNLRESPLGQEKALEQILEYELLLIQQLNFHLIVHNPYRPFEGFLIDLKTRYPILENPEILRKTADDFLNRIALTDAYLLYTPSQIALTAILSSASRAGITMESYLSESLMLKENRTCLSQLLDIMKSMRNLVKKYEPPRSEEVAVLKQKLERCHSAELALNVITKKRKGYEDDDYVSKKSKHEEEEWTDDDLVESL
Chain of Human CDK7/CycH/MAT1 (P51948 whole entry partner): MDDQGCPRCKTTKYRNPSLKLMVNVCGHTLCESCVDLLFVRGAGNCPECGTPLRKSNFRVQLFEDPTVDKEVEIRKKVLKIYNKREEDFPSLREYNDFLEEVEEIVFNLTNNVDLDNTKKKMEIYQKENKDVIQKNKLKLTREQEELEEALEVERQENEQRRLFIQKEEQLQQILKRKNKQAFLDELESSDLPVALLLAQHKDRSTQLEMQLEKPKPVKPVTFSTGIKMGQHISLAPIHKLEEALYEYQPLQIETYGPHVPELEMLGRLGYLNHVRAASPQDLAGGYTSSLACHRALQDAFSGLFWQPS
Chain of Human CDK12 wt/CycK (Q9NYV4 whole entry): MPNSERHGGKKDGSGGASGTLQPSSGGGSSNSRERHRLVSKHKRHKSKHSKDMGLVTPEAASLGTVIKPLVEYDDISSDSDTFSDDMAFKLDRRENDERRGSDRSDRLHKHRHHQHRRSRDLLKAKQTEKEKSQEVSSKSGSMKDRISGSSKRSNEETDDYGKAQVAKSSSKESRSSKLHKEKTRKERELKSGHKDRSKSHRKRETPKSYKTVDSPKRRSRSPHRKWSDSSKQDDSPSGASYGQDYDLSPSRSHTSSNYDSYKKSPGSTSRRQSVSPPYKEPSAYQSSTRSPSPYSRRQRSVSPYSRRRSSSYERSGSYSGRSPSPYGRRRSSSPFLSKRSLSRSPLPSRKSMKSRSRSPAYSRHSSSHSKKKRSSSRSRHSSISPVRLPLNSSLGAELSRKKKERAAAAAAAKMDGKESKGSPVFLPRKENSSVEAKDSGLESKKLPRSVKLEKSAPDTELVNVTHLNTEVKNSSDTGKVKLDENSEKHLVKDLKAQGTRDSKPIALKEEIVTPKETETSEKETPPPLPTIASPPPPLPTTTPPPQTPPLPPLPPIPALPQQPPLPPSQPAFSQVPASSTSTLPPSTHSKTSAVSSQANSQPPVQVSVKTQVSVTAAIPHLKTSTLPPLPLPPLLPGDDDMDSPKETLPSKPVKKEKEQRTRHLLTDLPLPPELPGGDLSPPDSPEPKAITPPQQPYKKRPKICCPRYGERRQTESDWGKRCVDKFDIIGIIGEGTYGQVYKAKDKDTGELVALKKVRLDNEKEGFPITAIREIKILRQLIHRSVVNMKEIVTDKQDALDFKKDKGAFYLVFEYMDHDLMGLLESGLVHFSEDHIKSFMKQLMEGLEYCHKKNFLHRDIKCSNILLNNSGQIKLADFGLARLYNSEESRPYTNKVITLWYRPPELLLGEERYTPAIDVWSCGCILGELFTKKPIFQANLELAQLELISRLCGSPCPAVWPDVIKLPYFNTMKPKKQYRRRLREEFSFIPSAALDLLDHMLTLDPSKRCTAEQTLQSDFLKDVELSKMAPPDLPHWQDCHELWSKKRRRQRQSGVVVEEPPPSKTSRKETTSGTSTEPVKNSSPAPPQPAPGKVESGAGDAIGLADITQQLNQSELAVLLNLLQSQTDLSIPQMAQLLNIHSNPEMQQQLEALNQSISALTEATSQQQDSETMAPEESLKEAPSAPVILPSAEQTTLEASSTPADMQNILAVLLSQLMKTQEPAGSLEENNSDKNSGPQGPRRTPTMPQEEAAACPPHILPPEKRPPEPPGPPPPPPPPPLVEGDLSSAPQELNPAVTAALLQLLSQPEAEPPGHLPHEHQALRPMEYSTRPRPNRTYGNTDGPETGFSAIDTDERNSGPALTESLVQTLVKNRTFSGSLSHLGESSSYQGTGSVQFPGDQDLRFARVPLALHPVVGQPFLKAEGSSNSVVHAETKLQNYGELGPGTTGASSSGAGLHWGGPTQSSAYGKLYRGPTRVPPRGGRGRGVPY
Chain of Human CDK12 wt/CycK (O75909 whole entry partner): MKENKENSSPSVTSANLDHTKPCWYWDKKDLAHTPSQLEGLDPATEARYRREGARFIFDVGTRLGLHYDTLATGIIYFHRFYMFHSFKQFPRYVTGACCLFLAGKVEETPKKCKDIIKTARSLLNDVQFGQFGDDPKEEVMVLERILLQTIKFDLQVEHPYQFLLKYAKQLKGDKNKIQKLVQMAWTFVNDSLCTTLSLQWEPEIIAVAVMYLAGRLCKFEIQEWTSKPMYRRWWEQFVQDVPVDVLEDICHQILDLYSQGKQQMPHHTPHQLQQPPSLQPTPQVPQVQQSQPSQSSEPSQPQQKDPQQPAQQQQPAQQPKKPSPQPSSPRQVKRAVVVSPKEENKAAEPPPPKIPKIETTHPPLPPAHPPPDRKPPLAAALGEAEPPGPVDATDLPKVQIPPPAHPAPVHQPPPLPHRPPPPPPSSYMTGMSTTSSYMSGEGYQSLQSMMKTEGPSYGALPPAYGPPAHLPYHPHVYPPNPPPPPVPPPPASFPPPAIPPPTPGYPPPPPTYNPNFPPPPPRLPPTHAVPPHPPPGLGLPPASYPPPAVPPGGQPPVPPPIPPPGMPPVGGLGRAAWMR

Turning to `O[C@H]1CNCC[C@@H]1CNc1cc(NCc2c(F)cc(-c3ccccc3)cc2F)n2ncc(C3CC3)c2n1` [PPA-076], the “Ratio of Biochemical Potency:Cellular Potency” value (“Ratio” below) with A673 cells was below 14.9. Further, the IC50 is above 100 nM in the experiment with A673 cells (setting [1]); above 100 nM in the experiment with A673 cells (setting [2]); 1490 nM at Human CDK12 wt/CycK (setting [3]); 1490 nM on Human CDK12 wt/CycK (setting [4]); 2250 nM at Human CDK7/CycH/MAT1. Moreover, the CDK7/CDK12 on Human CDK12 wt/CycK was 1.5.
Regarding `CC(=O)N1CCC(CNc2cc(NCc3ccc(-c4ccccn4)cc3)n3ncc(C4CC4)c3n2)CC1` [PPA-046], the “Ratio” value with A673 cells was 12.38. The IC50 in the experiment on A673 cells (setting [1]) is 305 nM; with A673 cells (setting [2]), 305 nM; at Human CDK12 wt/CycK (setting [3]), 3780 nM; on Human CDK12 wt/CycK (setting [4]), 3780 nM; against Human CDK7/CycH/MAT1 it was above 30000 nM. The CDK7/CDK12 at Human CDK12 wt/CycK is above 8.
With `FC1(F)CNCCC1CNc1cc(NCc2ccc(-c3ccccn3)cc2)n2ncc(C3CC3)c2n1` (stereo not drawn) [PPA-041], the “Ratio” value in the experiment on A673 cells is given as 10.92. The IC50 in the experiment with A673 cells (setting [1]) was 17.3 nM; in the experiment on A673 cells (setting [2]) it was 17.3 nM; on Human CDK12 wt/CycK (setting [3]), 189 nM; at Human CDK12 wt/CycK (setting [4]), 189 nM; on Human CDK7/CycH/MAT1, 1600 nM. The CDK7/CDK12 at Human CDK12 wt/CycK turned out to be 8.5.
Consider `COc1cccnc1-c1ccc(CNc2cc(NC[C@H]3CCNC[C@@H]3O)nc3c(C(C)C)cnn23)cc1` [PPA-013], for which the “Ratio” value with A673 cells is 40.45. Besides, the half-inhibitory concentration (IC50) in the experiment on A673 cells (setting [1]) was 2.2 nM; with A673 cells (setting [2]), 2.2 nM; at Human CDK12 wt/CycK (setting [3]), 89 nM; on Human CDK12 wt/CycK (setting [4]) it was 89 nM; against Human CDK7/CycH/MAT1, 114 nM. Moreover, the CDK7/CDK12 at Human CDK12 wt/CycK was found to be 1.3.
Take `O[C@H]1CNCC[C@@H]1CNc1cc(NCc2ccc(-c3ccccc3)nc2)n2ncc(C3CC3)c2n1` [PPA-026]: in the experiment on A673 cells, the “Ratio” value was 3.57. Also, the IC50 is 12.6 nM in the experiment with A673 cells (setting [1]); 12.6 nM in the experiment on A673 cells (setting [2]); 45 nM on Human CDK12 wt/CycK (setting [3]); 45 nM on Human CDK12 wt/CycK (setting [4]); 164 nM at Human CDK7/CycH/MAT1. The CDK7/CDK12 on Human CDK12 wt/CycK worked out at 3.6.
Consider `O[C@H]1CNCC[C@@H]1CNc1cc(NCc2ccc(-c3ncccc3C(F)(F)F)cc2)n2ncc(C3CC3)c2n1` [PPA-036], for which, in the experiment on A673 cells, the “Ratio” value came out at 0.78. The IC50 came to 312 nM in the experiment on A673 cells (setting [1]); 312 nM with A673 cells (setting [2]); 245 nM at Human CDK12 wt/CycK (setting [3]); 245 nM on Human CDK12 wt/CycK (setting [4]); 388 nM at Human CDK7/CycH/MAT1. Besides, the CDK7/CDK12 on Human CDK12 wt/CycK stood at 1.6.
On to `O[C@H]1CNCC[C@@H]1CNc1cc(NCc2ccc(-c3ccc(F)cn3)cc2)n2ncc(C3CC3)c2n1` [PPA-019], for which the “Ratio” value in the experiment with A673 cells is 1.34. Further, the IC50 in the experiment on A673 cells (setting [1]) came out at 52.4 nM; with A673 cells (setting [2]), 52.4 nM; at Human CDK12 wt/CycK (setting [3]), 70 nM; on Human CDK12 wt/CycK (setting [4]), 70 nM; at Human CDK7/CycH/MAT1 it was 224 nM. For the same molecule, the CDK7/CDK12 on Human CDK12 wt/CycK was determined as 3.2.
In the case of `O[C@H]1CNCC[C@@H]1CNc1cc(NCc2ccc(-c3ncccn3)cc2F)n2ncc(C3CC3)c2n1` [PPA-067], the “Ratio” value in the experiment with A673 cells turned out to be 25.00. Moreover, the IC50 in the experiment with A673 cells (setting [1]) came out at 2.6 nM; in the experiment with A673 cells (setting [2]), 2.6 nM; at Human CDK12 wt/CycK (setting [3]), 65 nM; at Human CDK12 wt/CycK (setting [4]), 65 nM; against Human CDK7/CycH/MAT1, 562 nM. Besides, the CDK7/CDK12 at Human CDK12 wt/CycK turned out to be 8.6.
For the molecule `O[C@H]1CNCC[C@@H]1CNc1cc(NCc2ccc(-c3ccccc3)cc2)n2ncc(Cl)c2n1` [PPA-083], in the experiment with A673 cells, the “Ratio” value is recorded as 7.11. In addition, the IC50 in the experiment on A673 cells (setting [1]) worked out at 4.5 nM; in the experiment on A673 cells (setting [2]) it was 4.5 nM; on Human CDK12 wt/CycK (setting [3]) it was 32 nM; on Human CDK12 wt/CycK (setting [4]) it was 32 nM; against Human CDK7/CycH/MAT1 it was 118 nM. Also, the CDK7/CDK12 on Human CDK12 wt/CycK came to 3.7.

For the origin of these results see patent US20240383900A1, “SUBSTITUTED PYRAZOLO [1,5-A]PYRIMIDINE-7-AMINE COMPOUNDS AS CDK INHIBITORS AND THEIR THERAPEUTIC USE” (Carrick Therapeutics Limited, priority 2021, published 2024).
